Read-outs that look alike come from different tables or passages of the source. Square brackets hold non-standard residues; d marks the D form. Peptide text beside a SMILES is read from it. Phe(ol) = N[C@H](CO)Cc1ccccc1; Leu(ol) = CC(C)C[C@H](N)CO; dIva = CC[C@@](C)(N)C(=O)O; Aib = CC(C)(N)C(=O)O
Tests used:
[1] = tested on: HZ NPDG-I-resistant Dd2 clones (pfmdr1 mutants); assay type: cell-based, P. falciparum; details: for pfMDR1 Clone Sensitivity: Figure 7A summary; for Fold Change in IC50 vs the parental line, clone 1B2 / Fold Change in IC50 vs the parental line, clone 1E2 / Fold Change in IC50 vs the parental line, clone 2B3 / Fold Change in IC50 vs the parental line, clone 3A3: Figure S5, 72 h, SYTO 61 flow cytometry; on pfMDR1 Clone Sensitivity: key: -: A '–' indicates a negative finding; a single '+' indicates a positive finding; a double '++' indicates a strong positive finding
Experimental: Screening of HZ NPDG-I resistant clones was performed at 1% parasitemia, 0.2% hematocrit with flow cytometry in V-shaped 96-well plates. Briefly, compounds were subjected to a 3-fold serial dilution with the highest concentration set at 4 μM or 8 μM. Eleven dilution points were included in addition to no-drug controls. Three technical replicates were set up for each compound at each dilution point. The Dd2-B2 parent line, or the clonal line 1B2, 2B3, 3A3, or 1E2 were added at 0.4% hematocrit and 1% parasitemia to the diluted compounds at a 1:1 ratio. The plate was incubated at 37°C for 72 h in a chamber filled with a hypoxic gas mixture (3% oxygen, 5% carbon dioxide, and 92% nitrogen). After incubation, a blood pellet was formed at the bottom of each well of the 96-well plate. Supernatant was removed without disturbing the pellet, and 20 μl of SYTO 61(1:10,000 dilution; Thermo Fisher Scientific, Cat No. S11343) in PBS was added to each well and incubated for 15 mins at room temperature. The cells in each well were then diluted with 180 μl of PBS and subjected to flow cytometry for parasitemia determination using the HTS (High-Throughput Sampler) of BD FACSCanto II (BD Biosciences, NJ). Flow cytometry data was analyzed using FlowJo Version 10.4.0. Dose response curves were generated and IC50 values obtained with GraphPad Prism Version 9.1.1.
A clone of the Dd2 strain (Dd2-B2) of P. falciparum was used for in vitro evolution of resistance against harzianin NPDG I. Three flasks of 1.2 x 10^8 parasites were continuously exposed to a stepwise-increasing concentration of the compound over ∼3 months starting from 20 nM up to a final concentration of 100 nM. Once a stable rightward shift in 72 h IC50 was observed, cultures were subjected to limiting dilution to obtained harzianin-resistant clones. Each clone was expanded, phenotyped to confirm resistance, and submitted for whole genome sequencing. An untreated flask of Dd2-B2 parasites was maintained in parallel throughout the course of in vitro selection as a control.

[2] = tested on: P. falciparum asexual blood stage parasites grown in 0.5% Albumax II; assay: Antiplasmodial activity with Albumax II media; assay type: cell-based; details: RPMI with 0.5% Albumax II; mean ± SEM from 3 biological replicates
Experimental: Asexual blood stage parasites grown in the Chakrabarti laboratory were cultured based on a protocol by Trager and Jensen[57] with some modifications.[35] […] For comparison screening using serum vs Albumax II, culture media was changed from RPMI with 0.5% Albumax II to RPMI with 10% human serum and maintained for a minimum of 2 weeks prior to assay use.
Inhibitor EC50 determination in 3D7 and Dd2 was performed as discussed in,[35] based on established protocols.[60] Assays utilized asynchronous culture at 1% parasitemia, 1% hematocrit. Culture was incubated with compound dilutions for 72 h followed by freezing at −80°C to promote lysis, then thawing and incubation for 45 min–1 h with 1× SYBR Green I in a lysis buffer (20 mM Tris-HCL, 0.08% saponin, 5 mM EDTA, and 0.8% Triton X-100). Fluorescence was read 485 nm excitation, 530 nm emission on a Synergy Neo2 multimode reader (BioTek Winsooki, VT) and EC50 curves were generated using CDD Vault (https://www.collaborativedrug.com/).

P. falciparum Dd2 = tested on: P. falciparum Dd2; parameters: method as in PMID: 33565879; details: asynchronous culture, 1% parasitemia, 1% hematocrit, 72 h, SYBR Green I; mean ± SEM, biological triplicate; ref PMID: 33565879; cited from earlier work
Source text: Arrow length represents correlation strength. Arrow direction indicates positive/negative correlation. Peptaibols color-coded based on type. See also Figure S1. […] Values represent mean ± SEM. Resistance index (RI) = Dd2 EC50/3D7 EC50, Selectivity index (SI) = HepG2 EC50/Dd2 EC50.

HepG2-A16-CD81 cells = assay type: cell-based, H. sapiens; details: HepG2-A16-CD81 without sporozoites, CellTiterGlo; up to 50 μM; read-out: HepG2 EC50 (liver stage counter screen)
Experimental: The liver stage was performed as discussed in.[61] Liver-stage inhibitory activity was evaluated in HepG2-A16-CD81 cells and using P. berghei sporozoites (P. berghei ANKA GFP-Luc-SMcon) freshly obtained by dissecting salivary glands of infected A. stephensi mosquitoes. Cells were first seeded in 1536-well plates (Greiner Bio) containing 50 nL of test and control compounds dissolved in DMSO and incubated for 24 h. Sporozoites were then added to each well at a density of 1 × 10^3 cells per well and kept at 37°C for 48 h. Afterwards, luciferin reagent (Promega BrightGlo) was added to each well, and luciferase activity was detected using a Perkin Elmer Envision plate. As a counter screen, HepG2-A16-CD81 cells were seeded as above and exposed to drug in the absence of sporozoites. Viability was evaluated by adding Promega CellTiterGlo® followed by luminescence measurement using a Perkin Elmer Envision plate reader. IC50 values were determined using CDD vault (https://www.collaborativedrug.com/).

[3] = tested on: P. falciparum 3D7 transcripts; assay: Real-time quantitative PCR validation; assay type: cell-based; details: normalized to serine-tRNA ligase; 3 biological replicates
Experimental: For RT-qPCR validation, total RNA was extracted as previously described from vehicle and HZ NPDG-I treated samples collected for the RNASeq analysis. A total of 500 ng of RNA from each sample was reverse transcribed into cDNA using the SuperScript First-Strand Synthesis System for RT-PCR (Invitrogen, Waltham, MA) with 100 ng of random hexamers. Synthesized cDNA from each of the 3 biological replicates was tested using Select Master Mix (Life Technologies, Carlsbad, CA) with 400 nM of forward and reverse primers using a QuantStudio 7 Flex qPCR machine (Thermo Fisher, Waltham, MA). SYBR fluorescence was normalized to passive reference dye ROX. Ct values were normalized using the […] method by normalizing to housekeeping gene serine-tRNA ligase (PF3D7_0717700) and then normalizing between the treated and untreated controls. PCR parameters included 50°C for 2 min, 95°C for 10 min, followed by 40 cycles of 95°C for 15 s, 55°C for 30 seconds, and 60°C for 30 seconds. Primer pair sequences are listed in full in Table S5.

CC[C@H](C)[C@H](NC(=O)[C@H](C)NC(=O)[C@@H]1CCCN1C(=O)C(C)(C)NC(=O)[C@H](CC(C)C)NC(=O)[C@H](CCC(N)=O)NC(=O)[C@@](C)(CC)NC(C)=O)C(=O)NC(C)(C)C(=O)N1CCC[C@H]1C(=O)N[C@](C)(CC)C(=O)N[C@@H](CC(C)C)C(=O)NC(C)(C)C(=O)N1CCC[C@H]1C(=O)N[C@H](CO)CC(C)C [HZ NPDG-H, harzianin NPDG H] (Ac-[dIva]QL[Aib]PAI[Aib]P[dIva]L[Aib]P[Leu(ol)])
EC50 increase in HZ NPDG-I resistant clones vs parental line ([1]; 4 resistant clones screened): 1.4 fold | pfMDR1 Clone Sensitivity [1]: - | Fold Change in IC50 vs the parental line, clone 1B2 [1]: 0.62 | Fold Change in IC50 vs the parental line, clone 1E2 [1]: 0.98 | Fold Change in IC50 vs the parental line, clone 2B3 [1]: 1.14 | Fold Change in IC50 vs the parental line, clone 3A3 [1]: 1.40 | EC50 [2]: 330 ± 90 nM | EC50 (P. falciparum Dd2): 330 ± 90 nM

CC(=O)NC(C)(C)C(=O)N1CCC[C@H]1C(=O)NC(C)(C)C(=O)N[C@@H](C)C(=O)NC(C)(C)C(=O)N[C@@H](C)C(=O)N[C@@H](CCC(N)=O)C(=O)NC(C)(C)C(=O)N[C@H](C(=O)NC(C)(C)C(=O)NCC(=O)N[C@@H](CC(C)C)C(=O)NC(C)(C)C(=O)N1CCC[C@H]1C(=O)N[C@H](C(=O)NC(C)(C)C(=O)NC(C)(C)C(=O)N[C@@H](CCC(=O)O)C(=O)N[C@@H](CCC(N)=O)C(=O)N[C@H](CO)Cc1ccccc1)C(C)C)C(C)C [Alamethicin, reference compound] (Ac-[Aib]P[Aib]A[Aib]AQ[Aib]V[Aib]GL[Aib]PV[Aib][Aib]EQ[Phe(ol)]; N-terminus assumed)
Fold Change in IC50 vs the parental line, clone 1B2 [1]: 0.55 | Fold Change in IC50 vs the parental line, clone 1E2 [1]: 0.45 | Fold Change in IC50 vs the parental line, clone 2B3 [1]: 0.63 | Fold Change in IC50 vs the parental line, clone 3A3 [1]: 0.54

CC[C@@](C)(NC(=O)C(C)(C)NC(=O)[C@H](CC(C)C)NC(=O)[C@@H]1CCCN1C(=O)C(C)(C)NC(=O)[C@H](CC(C)C)NC(=O)CNC(=O)C(C)(C)NC(=O)[C@@H](NC(=O)C(C)(C)NC(=O)[C@H](CCC(N)=O)NC(=O)C(C)(C)NC(=O)C(C)(C)NC(=O)[C@H](C)NC(=O)CNC(=O)C(C)(C)NC(C)=O)C(C)C)C(=O)N[C@@H](CCC(N)=O)C(=O)N[C@H](CO)CC(C)C [TC HA-II, trichorzin HA II] (Ac-[Aib]GA[Aib][Aib]Q[Aib]V[Aib]GL[Aib]PL[Aib][dIva]Q[Leu(ol)])
pfMDR1 Clone Sensitivity [1]: -

CC[C@H](C)[C@H](NC(=O)[C@H](CC(C)C)NC(=O)[C@H](CCC(N)=O)NC(=O)[C@@](C)(CC)NC(C)=O)C(=O)NC(C)(C)C(=O)N1CCC[C@H]1C(=O)N[C@](C)(CC)C(=O)N[C@@H](CC(C)C)C(=O)NC(C)(C)C(=O)N1CCC[C@H]1C(=O)N[C@H](CO)CC(C)C [HZ NPDG-I, harzianin NPDG I] (Ac-[dIva]QLI[Aib]P[dIva]L[Aib]P[Leu(ol)])
EC50 (HepG2-A16-CD81 cells): > 50000 nM | RT-qPCR mean fold change, F3D7_0106100 [3]: −5.86 | RT-qPCR mean fold change, MSTRG.194.1 [3]: 1.52 | RT-qPCR mean fold change, MSTRG.363.2 [3]: 2.56 | RT-qPCR mean fold change, PF3D7_0519200 [3]: −22.26 | RT-qPCR mean fold change, PF37D_1419800 [3]: −7.27 | pfMDR1 Clone Sensitivity [1]: ++ | Fold Change in IC50 vs the parental line, clone 1B2 [1]: 8.70 | Fold Change in IC50 vs the parental line, clone 1E2 [1]: 5.70 | Fold Change in IC50 vs the parental line, clone 2B3 [1]: 7.00 | Fold Change in IC50 vs the parental line, clone 3A3 [1]: 4.50 | fold change, clone 1D5 ([1]; flask 1, IC50 vs Dd2-B2): 4.65 | fold change, clone 1H3 ([1]; flask 1, IC50 vs Dd2-B2): 7.57 | fold change, clone Harzianin-Dd2-1B2 ([1]; flask 1, IC50 vs Dd2-B2): 8.64 | fold change, clone Harzianin-Dd2-1C12 ([1]; flask 1, IC50 vs Dd2-B2): 9.71 | fold change, clone Harzianin-Dd2-1E2 ([1]; flask 1, IC50 vs Dd2-B2): 5.63 | IC50 ([1]; flask 1, read-out: IC50, clone 1D5): 0.249 nM | IC50 ([1]; flask 1, read-out: IC50, clone 1H3): 0.406 nM | IC50 ([1]; flask 1, read-out: IC50, clone Harzianin-Dd2-1B2): 0.463 nM | IC50 ([1]; flask 1, read-out: IC50, clone Harzianin-Dd2-1C12): 0.52 nM | IC50 ([1]; flask 1, read-out: IC50, clone Harzianin-Dd2-1E2): 0.302 nM | fold change, clone 2B7 ([1]; flask 2, IC50 vs Dd2-B2): 3.87 | fold change, clone 2E9 ([1]; flask 2, IC50 vs Dd2-B2): 6.77 | fold change, clone Harzianin-Dd2-2B3 ([1]; flask 2, IC50 vs Dd2-B2): 6.98 | fold change, clone Harzianin-Dd2-2E8 ([1]; flask 2, IC50 vs Dd2-B2): 5.31 | fold change, clone Harzianin-Dd2-2G7 ([1]; flask 2, IC50 vs Dd2-B2): 4.60 | IC50 ([1]; flask 2, read-out: IC50, clone 2B7): 0.0859 nM | IC50 ([1]; flask 2, read-out: IC50, clone 2E9): 0.15 nM | IC50 ([1]; flask 2, read-out: IC50, clone Harzianin-Dd2-2B3): 0.155 nM | IC50 ([1]; flask 2, read-out: IC50, clone Harzianin-Dd2-2E8): 0.118 nM | IC50 ([1]; flask 2, read-out: IC50, clone Harzianin-Dd2-2G7): 0.102 nM | fold change, clone 3A5 ([1]; flask 3, IC50 vs DD2-B2): 4.30 | fold change, clone 3B7 ([1]; flask 3, IC50 vs DD2-B2): 4.05 | fold change, clone 3G7 ([1]; flask 3, IC50 vs DD2-B2): 3.98 | fold change, clone Harzianin-Dd2-3A3 ([1]; flask 3, IC50 vs DD2-B2): 4.51 | fold change, clone Harzianin-Dd2-3C6 ([1]; flask 3, IC50 vs DD2-B2): 4.68 | fold change, clone Harzianin-Dd2-3G11 ([1]; flask 3, IC50 vs DD2-B2): 3.93 | IC50 ([1]; flask 3, read-out: IC50, clone 3A5): 0.188 nM | IC50 ([1]; flask 3, read-out: IC50, clone 3B7): 0.177 nM | IC50 ([1]; flask 3, read-out: IC50, clone 3G7): 0.174 nM | IC50 ([1]; flask 3, read-out: IC50, clone Harzianin-Dd2-3A3): 0.197 nM | IC50 ([1]; flask 3, read-out: IC50, clone Harzianin-Dd2-3C6): 0.204 nM | IC50 ([1]; flask 3, read-out: IC50, clone Harzianin-Dd2-3G11): 0.172 nM | EC50 [2]: 100 ± 10 nM | EC50 (P. falciparum Dd2): 100 nM

— PMC10923054, “Antiplasmodial peptaibols act through membrane directed mechanisms” (Cell Chemical Biology, 2024)
